According to paper PMC8391104, “Molecular mechanism of Mad1 kinetochore targeting by phosphorylated Bub1” (EMBO Reports, 2021):

Molecular target: T1, human Mad1^CTD (WT) homodimer (Homo sapiens, UniProt Q9Y6D9)
T1 construct: human Mad1^CTD homodimer (residues 597–718); double Strep His6-tag with TEV site (N, cleaved yes); made in house; host or cells: E. coli Rosetta 2 (DE3)
T1 sequence (Q9Y6D9 597-718): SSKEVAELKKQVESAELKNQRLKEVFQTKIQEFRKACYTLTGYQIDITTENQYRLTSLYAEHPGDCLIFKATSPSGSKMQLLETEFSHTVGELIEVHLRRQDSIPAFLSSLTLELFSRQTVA
Test: ITC of Bub1^CD1 peptides binding to wild-type Mad1^CTD
Conditions: N‐terminal tryptophan peptide
From the text: The coding region of Mad1^597–719 was cloned by USER® (NEB) into a modified pRSFDuet‐1 vector (71341‐3, Sigma‐Aldrich) with an N‐terminal double Strep His6‐tag, followed by a tobacco etch virus (TEV) protease cleavage site (Demple & Linn, [1982]; Bitinaite et al, [1992]). Mad1 mutants were generated using the QuikChange™ Lightning Site‐Directed Mutagenesis Kit (Agilent), developed by Stratagene Inc. (La Jolla, CA) (Nøhr & Kristiansen, [2003]). Mad1 constructs were transformed into Rosetta™ 2 (DE3) Singles™ Competent Cells (71400, Novagen) for expression. Expression was induced with 0.5 mM IPTG and grown overnight at 18°C. Cells were lysed in 25 mM HEPES pH 8.1, 250 mM NaCl, 2 mM DTT, 5% glycerol, 2 mM EDTA supplemented with lysozyme, and Complete™ EDTA‐free protease inhibitors (Roche). Proteins were purified over a Strep‐Tactin Superflow Plus column (QIAGEN) and cleaved with TEV protease overnight at 4°C. The cleaved Mad1^CTD was then diluted to 50 mM NaCl, purified over an anion exchange (Resource Q, GE Healthcare) column, followed by size exclusion chromatography using a Superdex 75 Increase column (GE Healthcare). Mad1^CTD was concentrated to 35 mg/ml in a buffer of 20 mM HEPES pH 7.5, 100 mM NaCl and 1 mM TCEP.
Bub1^CD1 peptides were ordered from Designer Bioscience UK, at 95% purity. The full peptide sequence used in this study was (W)KVQP{pS}P{pT}VHTKEALGFIMNMFQAPTS. (W) = peptide with an additional N‐terminal tryptophan was used to confirm peptide concentration in stoichiometry studies.
Isothermal titration calorimetry (ITC) was performed using an Auto‐iTC200 instrument (Malvern Instruments, Malvern, UK) at 20°C. Mad1^CTD and Bub1^CD1 peptide mutants were dialysed into 20 mM HEPES pH 7.5, 100 mM NaCl, 1 mM TCEP. For each titration between 30–100 µM of Mad1 was pipetted into the calorimeter cell. The Bub1^CD1 peptides at 0.3–1.5 mM were titrated into the cell consisting of one 0.5 µl injection followed by 19 injections of 2 µl each. The changes in the heat released were integrated over the entire titration and fitted to a single‐site binding model using the MicroCal PEAQ‐ITC Analysis Software 1.0.0.1258 (Malvern Instruments). Titrations were performed in triplicate. Calculations for stoichiometry were based on the molar concentrations of dimeric Mad1^CTD.

(W)KVQP{pS}P{pT}VHTKEALGFIMNMFQAPTS [peptide with an additional N‐terminal tryptophan was used to confirm peptide concentration in stoichiometry studies]
KD and stoichiometry compared with peptide lacking N-terminal Trp: The same KD and stoichiometry
